Patent US20040192759A1, “Use of nefiracetam for treating neurodegeneration” (priority 2004, published 2004)
Entries after “also recorded” stand apart in the source; their conditions may differ.

Experiments:
[1] = tested on: cortical rat embrio neurons; assay: neurite outgrowth in primary cultures of cortical neurons; format: cell-based; settings: 0.1, 1, 10 and 100 micromoles/l
[2] = tested on: rats with cerebral embolism; assay: spatial learning and retention (watermaze) of rats with cerebral embolism; format: in vivo, male Wistar rats
Protocol: This assumption is confirmed by the effect of nefiracetam on spatial learning and retention in rats with cerebral embolism, treated for 9 days with nefiracetam or vehicle, starting within 24 hours of embolization.
In male Wistar rats weighing 190-220 g a total of 700 microspheres (48 μm in diameter) were injected into the right common carotid artery of each animal, whereby a quasi-immediate embolism occurs. The embolized animals were randomly divided into 2 groups, each of 13 animals with same neurological deficit, designated as “Control” (embolism plus Vehicle), or “Nefiracetam” (embolism plus nefiracetam 10 mg/kg/day). In addition, a group of 13 “Normal (Sham)” non-embolized animals were used. The administration of nefiracetam or of its vehicle started within the same day of embolization and treatment lasted 9 days. Seven days after embolization, the embolized rats were submitted to a watermaze test, said watermaze being adapted from the Morris water task. The time taken to find the platform (latency) was determined. […] The experiment was carried out in two different sessions. In the first session, at the seventh day embolized rats were submitted to the spatial learning test performed three trials per day for three days (from day 7 to day 9). In the second session, one week after the last day of spatial learning test […], a retention test was performed whereby each rat was given three consecutive trials to learn and remember the location of the platform.

[3] = tested on: hippocampal rat embrio neurons; assay: neurite outgrowth in primary cultures of hippocampal neurons; format: cell-based
[4] = tested on: stroke patients; settings: Hirata et al.; cited from earlier work
[5] = tested on: patients after a stroke (cerebral infarction or cerebral hemorrhage); settings: Ohtomo et al., global results; cited from earlier work
[6] = tested on: post-stroke patients; assay: controlled clinical trial against placebo in post-stroke patients, improvement rating by duration from stroke; format: in vivo, human
Protocol: The activity of nefiracetam to improve ADL in post-stroke patients has been discovered during a controlled clinical trial against placebo. The compound has been administered orally (450 mg/day, three times daily) to 32 post-stroke patients within six months after the event whilst, concurrently, 27 patients received placebo. The two groups of patients were followed during at least 8 weeks and followed up at the end of week 4 and at the end of week 8 on a symptom scale measuring Activities of Daily Living. […] Among the above 59 patients, 19 received nefiracetam and 10 received placebo within three months after stroke. […] The difference was significant (p=0.035, χ^2 test).
Further, the action of nefiracetam on the patient who had been treated with nefiracetam early after stroke or later was evaluated.

[7] = Overall (all durations from stroke)
[8] = duration from stroke <12 months
[9] = duration from stroke ≧12 months

Cc1cccc(C)c1NC(=O)CN1CCCC1=O [nefiracetam, N-(2,6-dimethylphenyl)-2-(2-oxo-1-pyrrolidinyl)acetamide]
neurotrophic effect (neurite outgrowth) [1]: significantly increasing neurite outgrowth | Number of rats which failed to find the platform within 180 Sec., Spatial learning test ([2]; Day 7, 10 mg/kg/day, of 13 rats): 8 | Latency to reach the platform, Spatial learning test ([2]; Day 7 after embolization, 10 mg/kg/day for 9 days, n 13): 147.6 ± 14.1 s | Number of rats which failed to find the platform within 180 Sec., Spatial learning test ([2]; Day 8, 10 mg/kg/day, of 13 rats): 2 | Latency to reach the platform, Spatial learning test ([2]; Day 8 after embolization, 10 mg/kg/day for 9 days, n 13): 83.7 ± 17.4 s | Number of rats which failed to find the platform within 180 Sec., Spatial learning test ([2]; Day 9, 10 mg/kg/day, of 13 rats): 2 | Latency to reach the platform, Spatial learning test ([2]; Day 9 after embolization, 10 mg/kg/day for 9 days, n 13): 93.1 ± 16.2 s | Number of rats which failed to find the platform within 180 Sec., Retention test ([2]; Day 17, 10 mg/kg/day, of 13 rats): 2 | Latency to reach the platform, Retention test ([2]; Day 17 after embolization (after washout), 10 mg/kg/day for 9 days, n 13): 72.2 ± 17.0 s | effect in retention test vs vehicle (in words) ([2]; day 17 after embolization, after washout): maintained even after washout; also recorded: remakable difference | learning ability in place-learning watermaze task vs vehicle (in words) ([2]; days 7 to 9 after embolization): clear difference between nefiracetam and vehicle-treated animals | neurotrophic effect (neurite outgrowth) ([3]; 0.1, 1, 10 and 100 micromoles/l): significantly increasing neurite outgrowth | neurite outgrowth effect in combination with bFGF ([3]; with bFGF): potentiated by bFGF | improvement of mental function tests [4]: not significant | activities of daily living, nefiracetam vs placebo [5]: no significant difference between the two groups | psychiatric symptoms [5]: improves the psychiatric symptoms | improvement on symptom scale measuring Activities of Daily Living (in words) ([6]; 450 mg/day orally, within six months after stroke, 32 patients, weeks 4 and 8): moderate or remarkable improvement | Emotional Disturbance, Improvement Rate (Percent Patients Remarkably or Moderately Improved) [6, 7]: Overall 22.6% | Global Improvement Rating, Improvement Rate (Percent Patients Remarkably or Moderately Improved) [6, 7]: Overall 32.3% | Intellectual Dysfunction, Improvement Rate (Percent Patients Remarkably or Moderately Improved) [6, 7]: Overall 11.9% | Psychiatric Symptoms, Improvement Rate (Percent Patients Remarkably or Moderately Improved) [6, 7]: Overall 30.8% | Reduced Spontaneity, Improvement Rate (Percent Patients Remarkably or Moderately Improved) [6, 7]: Overall 23.4% | ADL Improvement, Improvement Rate (Percent Patients Remarkably or Moderately Improved) ([6]; duration from stroke <3 months): 41.7% | ADL Improvement, Improvement Rate (patients improved/patients) ([6]; duration from stroke <3 months): 5/12 | Emotional Disturbance, Improvement Rate (Percent Patients Remarkably or Moderately Improved) ([6]; duration from stroke <3 months): 70.6% | Emotional Disturbance, Improvement Rate (patients improved/patients) ([6]; duration from stroke <3 months): 12/17 | Global Improvement Rating, Improvement Rate (Percent Patients Remarkably or Moderately Improved) ([6]; duration from stroke <3 months): 68.4% | Global Improvement Rating, Improvement Rate (patients improved/patients) ([6]; duration from stroke <3 months): 13/19 | Intellectual Dysfunction, Improvement Rate (Percent Patients Remarkably or Moderately Improved) ([6]; duration from stroke <3 months): 43.8% | Intellectual Dysfunction, Improvement Rate (patients improved/patients) ([6]; duration from stroke <3 months): 7/16 | Psychiatric Symptoms, Improvement Rate (Percent Patients Remarkably or Moderately Improved) ([6]; duration from stroke <3 months): 68.4% | Psychiatric Symptoms, Improvement Rate (patients improved/patients) ([6]; duration from stroke <3 months): 13/19 | Reduced Spontaneity, Improvement Rate (Percent Patients Remarkably or Moderately Improved) ([6]; duration from stroke <3 months): 61.1% | Reduced Spontaneity, Improvement Rate (patients improved/patients) ([6]; duration from stroke <3 months): 11/18 | ADL Improvement, Improvement Rate (Percent Patients Remarkably or Moderately Improved) ([6]; duration from stroke <6 months): 21.7% | ADL Improvement, Improvement Rate (patients improved/patients) ([6]; duration from stroke <6 months): 5/23 | Emotional Disturbance, Improvement Rate (Percent Patients Remarkably or Moderately Improved) ([6]; duration from stroke <6 months): 48.3% | Emotional Disturbance, Improvement Rate (patients improved/patients) ([6]; duration from stroke <6 months): 14/29 | Global Improvement Rating, Improvement Rate (Percent Patients Remarkably or Moderately Improved) ([6]; duration from stroke <6 months): 50.0% | Global Improvement Rating, Improvement Rate (patients improved/patients) ([6]; duration from stroke <6 months): 16/32 | Intellectual Dysfunction, Improvement Rate (Percent Patients Remarkably or Moderately Improved) ([6]; duration from stroke <6 months): 29.6% | Intellectual Dysfunction, Improvement Rate (patients improved/patients) ([6]; duration from stroke <6 months): 8/27 | Psychiatric Symptoms, Improvement Rate (Percent Patients Remarkably or Moderately Improved) ([6]; duration from stroke <6 months): 50.0% | Psychiatric Symptoms, Improvement Rate (patients improved/patients) ([6]; duration from stroke <6 months): 16/32 | Reduced Spontaneity, Improvement Rate (Percent Patients Remarkably or Moderately Improved) ([6]; duration from stroke <6 months): 46.7% | Reduced Spontaneity, Improvement Rate (patients improved/patients) ([6]; duration from stroke <6 months): 14/30 | ADL Improvement, Improvement Rate (Percent Patients Remarkably or Moderately Improved) [6, 8]: 14.3% | ADL Improvement, Improvement Rate (patients improved/patients) [6, 8]: 5/35 | Emotional Disturbance, Improvement Rate (Percent Patients Remarkably or Moderately Improved) [6, 8]: 48.8% | Emotional Disturbance, Improvement Rate (patients improved/patients) [6, 8]: 21/43 | Global Improvement Rating, Improvement Rate (Percent Patients Remarkably or Moderately Improved) [6, 8]: 50.0% | Global Improvement Rating, Improvement Rate (patients improved/patients) [6, 8]: 24/48 | Intellectual Dysfunction, Improvement Rate (Percent Patients Remarkably or Moderately Improved) [6, 8]: 23.1% | Intellectual Dysfunction, Improvement Rate (patients improved/patients) [6, 8]: 9/39 | Psychiatric Symptoms, Improvement Rate (Percent Patients Remarkably or Moderately Improved) [6, 8]: 50.0% | Psychiatric Symptoms, Improvement Rate (patients improved/patients) [6, 8]: 24/48 | Reduced Spontaneity, Improvement Rate (Percent Patients Remarkably or Moderately Improved) [6, 8]: 46.7% | Reduced Spontaneity, Improvement Rate (patients improved/patients) [6, 8]: 21/45 | ADL Improvement, Improvement Rate (Percent Patients Remarkably or Moderately Improved) ([6]; duration from stroke ≧3 months): 1.2% | ADL Improvement, Improvement Rate (patients improved/patients) ([6]; duration from stroke ≧3 months): 1/81 | ADL Improvement, Improvement Rate (Percent Patients Remarkably or Moderately Improved) ([6]; duration from stroke ≧6 months): 1.4% | ADL Improvement, Improvement Rate (patients improved/patients) ([6]; duration from stroke ≧6 months): 1/70 | Emotional Disturbance, Improvement Rate (Percent Patients Remarkably or Moderately Improved) ([6]; duration from stroke ≧6 months): 14.7% | Emotional Disturbance, Improvement Rate (patients improved/patients) ([6]; duration from stroke ≧6 months): 14/95 | Global Improvement Rating, Improvement Rate (Percent Patients Remarkably or Moderately Improved) ([6]; duration from stroke ≧6 months): 26.5% | Global Improvement Rating, Improvement Rate (patients improved/patients) ([6]; duration from stroke ≧6 months): 26/98 | Intellectual Dysfunction, Improvement Rate (Percent Patients Remarkably or Moderately Improved) ([6]; duration from stroke ≧6 months): 6.1% | Intellectual Dysfunction, Improvement Rate (patients improved/patients) ([6]; duration from stroke ≧6 months): 5/82 | Psychiatric Symptoms, Improvement Rate (Percent Patients Remarkably or Moderately Improved) ([6]; duration from stroke ≧6 months): 24.5% | Psychiatric Symptoms, Improvement Rate (patients improved/patients) ([6]; duration from stroke ≧6 months): 24/98 | Reduced Spontaneity, Improvement Rate (Percent Patients Remarkably or Moderately Improved) ([6]; duration from stroke ≧6 months): 16.0% | Reduced Spontaneity, Improvement Rate (patients improved/patients) ([6]; duration from stroke ≧6 months): 15/94 | ADL Improvement, Improvement Rate (Percent Patients Remarkably or Moderately Improved) [6, 9]: 1.7% | ADL Improvement, Improvement Rate (patients improved/patients) [6, 9]: 1/58 | Emotional Disturbance, Improvement Rate (Percent Patients Remarkably or Moderately Improved) [6, 9]: 8.6% | Emotional Disturbance, Improvement Rate (patients improved/patients) [6, 9]: 7/81 | Global Improvement Rating, Improvement Rate (Percent Patients Remarkably or Moderately Improved) [6, 9]: 22.0% | Global Improvement Rating, Improvement Rate (patients improved/patients) [6, 9]: 18/82 | Intellectual Dysfunction, Improvement Rate (Percent Patients Remarkably or Moderately Improved) [6, 9]: 5.7% | Intellectual Dysfunction, Improvement Rate (patients improved/patients) [6, 9]: 4/70 | Psychiatric Symptoms, Improvement Rate (Percent Patients Remarkably or Moderately Improved) [6, 9]: 19.5% | Psychiatric Symptoms, Improvement Rate (patients improved/patients) [6, 9]: 16/82 | Reduced Spontaneity, Improvement Rate (Percent Patients Remarkably or Moderately Improved) [6, 9]: 10.1% | Reduced Spontaneity, Improvement Rate (patients improved/patients) [6, 9]: 8/79 | incontinence of urines ([6]; early treatment after stroke): tends to improve | neurological signs ([6]; early treatment after stroke): tends to improve
